Patent publication US5585355A, “Method for increasing blood-ocular barrier permeability with permeabilizer peptides” (Alkermes, Inc., priority 1994, dated 1996)

How the values were obtained:
Format in all cases: in vivo, guinea pig
[1] = Effect of A-7 on physiological functions; settings: A-7 10 μg/kg body weight; within first minute of infusion
blood-ocular barrier [2] = test: Uptake of [3H]-ganciclovir into the eye after arterial infusion of A-7 (VEP); settings: for KIN of [3H]-ganciclovir: 0 min to 3.0 min; for KIN for ganciclovir, times higher in the presence of A-7: 0 to 3.0 min
Experimental: Animals were anaesthetized with 6 mg/kg xylazine (Rompun®, Mobay Corp., Shawnee, Kans.) and 30 mg/kg ketamine (Vetacet®, Abeco Co., Inc., Fort Dodge, Iowa) before surgically exposing the neck vessels. The vascular eye perfusion (VEP) technique used here and previously described by Zlokovic et al. (1992, Exp. Eye Res., 54:471) allows for the study of uptake of agents in to the eye while protecting the eye from systemic metabolic changes. The technique is briefly summarized here. A fine polyethylene catheter connected to the extracorporeal perfusion system by silicon tubings was inserted into the right common carotid artery. Immediately after the start of the perfusion, the contralateral carotid artery was ligated and both jugular veins cut to allow free drainage of the perfusate.
The perfusion medium consisted of 20% washed sheep red blood cells (RBC) suspended in mock plasma of the following composition (in mM): 123 NaCl, 4 KCl, 2.5 CaCl2.H2 O, 25 NaHCO3, 1.2 KH2 PO4, 1.8 MgCl2.6H2 O and 5.5 D-glucose. The perfusion medium was gassed with 96% O2 and 4% CO2 and warmed to 37.6° C., and was pumped from a reservoir through a water bath using a Rainin Rabbit peristaltic pump (Rainin Instruments, Woburn, Mass.). All tubing was low gas permeable silicon, and all metal was medical grade stainless steel. The temperature and perfusion pressure were continuously recorded, and the acid-base status frequently monitored. Perfusion pressure was kept slightly above the animal's blood pressure to eliminate any possible ingress from the systemic circulation.
Isotopically labeled [^14 C]-sucrose was introduced into the perfusion circuit after the 5 minute infusion at a rate of 0.4 to 0.6 μCi/ml/min, over periods ranging from 1.5 min to 4.5 min. In all experiments, the perfusion was terminated by severing the right common carotid artery and decapitating the animal.
As large a sample as possible (30-40 μl) of the aqueous humor was removed with a 0.5 cc U-100 insulin syringe using 28 G 1/2 microfine IV needle (no dead-space), immediately after the perfusion was terminated. The eyes were enucleated and the lenses rapidly excised via a lateral approach 1.5 mm posteriorly to the limbus. The lenses were blotted on filter paper to remove any adhering aqueous humor and to avoid epithelial contamination by aqueous radioactivity. Corneas were dissected circumferentially about 0.5 mm anteriorly to the limbus. After removal of the anterior segment of the eye, the vitreous body was dissected from the retinal surface. Retinas were scooped from the lying epithelium. All tissues were blotted after dissection to minimize contamination by adjacent tissue layers and/or fluids. Samples of plasma, aqueous humor, lens, cornea, retina and posterior vitreous were treated with 2 ml Beckman Tissue Solubilizer (BTS)-450, and 16 ml of scintillant (Beckman Ready Organic, Fullerton, Calif.). Radioactivity was determined in a Beckman LS-7500 liquid scintillation spectrometer.
The methodology of these experiments is similar to that of Example 1 described above. […] The ocular compartments were dissected as described above and analyzed for uptake of [^3 H]-ganciclovir.

blood-ocular barrier [3] = test: Uptake of [3H]-ganciclovir into retina and lens following intravenous administration of A-7; settings: for Uptake of [3H]-ganciclovir, % of plasma concentration (W/W): five minute intravenous administration of A-7
Experimental: The methodology of these experiments is similar to that of Example 1 except for the following modifications. In this case, [^3 H]-ganciclovir (22 Ci mmol^-1, Moravek Brea, Calif.) was injected into the right jugular vein instead of the common carotid artery. […] The lenses and retinas were removed as described in Example 1.

In the case of “Arginine-Proline-Hydroxyproline-Glycine-Thienylalanine-Serine-Proline-4-Me-Tyrosine-(CH2 NH)Arginine [A-7]”, the “Blood Pressure” value [1] was 100 mm Hg, the “Body Weight” value [1] was 285 g and the “Heart Rate” value [1] was “Unmeasur-”. For the same substance, the Respirations/Minute [1] was 58, the “Uptake of [3H]-ganciclovir, % of plasma concentration (W/W)” value (“Uptake of [3H]-ganciclovir, % … (W/W)” below) (blood-ocular barrier [2]; aqueous, 1.5 min, arterial infusion of A-7) was 0.46 ± 0.1 % of Plasma Concentration (W/W and the “Uptake of [3H]-ganciclovir, % … (W/W)” value (blood-ocular barrier [2]; aqueous, 3.0 min, arterial infusion of A-7) was 0.51 ± 0.21 % of Plasma Concentration (W/W. The “Uptake of [3H]-ganciclovir, % … (W/W)” value (blood-ocular barrier [2]; aqueous, 4.5 min, arterial infusion of A-7) was 0.55 ± 1.0 % of Plasma Concentration (W/W, the “Ganciclovir uptake into other compartments” value (blood-ocular barrier [2]; compartments other than retina and lens, within the measured time periods) was “did not substantially increase” and the “KIN of [3H]-ganciclovir” value (blood-ocular barrier [2]; cornea) was 1.21 µL/min/g. For the same substance, the “Uptake of [3H]-ganciclovir, % … (W/W)” value (blood-ocular barrier [2]; cornea, 1.5 min, arterial infusion of A-7) was 1.16 ± 0.53 % of Plasma Concentration (W/W, the “Uptake of [3H]-ganciclovir, % … (W/W)” value (blood-ocular barrier [2]; cornea, 3.0 min, arterial infusion of A-7) was 2.98 ± 0.33 % of Plasma Concentration (W/W and the “Uptake of [3H]-ganciclovir, % … (W/W)” value (blood-ocular barrier [2]; cornea, 4.5 min, arterial infusion of A-7) was 2.92 ± 0.46 % of Plasma Concentration (W/W. The “KIN of [3H]-ganciclovir” value (blood-ocular barrier [2]; lens) was 40.3 ± 5.6 µL/min/g, the “KIN for ganciclovir, times higher in the presence of A-7” value (blood-ocular barrier [2]; lens) was 1.3 times and the “Uptake of [3H]-ganciclovir, % … (W/W)” value (blood-ocular barrier [2]; lens, 1.5 min, arterial infusion of A-7) was 7.89 ± 0.52 % of Plasma Concentration (W/W. For the same substance, the “Uptake of [3H]-ganciclovir, % … (W/W)” value (blood-ocular barrier [2]; lens, 3.0 min, arterial infusion of A-7) was 11.86 ± 1.42 % of Plasma Concentration (W/W, the “Uptake of [3H]-ganciclovir, % … (W/W)” value (blood-ocular barrier [2]; lens, 4.5 min, arterial infusion of A-7) was 13.37 ± 1.06 % of Plasma Concentration (W/W and the “Increase in uptake of ganciclovir into the lens” value (blood-ocular barrier [2]; lens, from 1.5 to 4.5 minutes of VEP) was 1.5-2 fold. The “KIN of [3H]-ganciclovir” value (blood-ocular barrier [2]; retina) was 21.2 ± 1.5 µL/min/g, the “KIN for ganciclovir, times higher in the presence of A-7” value (blood-ocular barrier [2]; retina) was 2.6 times and the “Uptake of [3H]-ganciclovir, % … (W/W)” value (blood-ocular barrier [2]; retina, 1.5 min, after 5 min arterial infusion of A-7) was 3.96 ± 0.68 % of Plasma Concentration (W/W. For the same substance, the “Uptake of [3H]-ganciclovir, % … (W/W)” value (blood-ocular barrier [2]; retina, 3.0 min, after 5 min arterial infusion of A-7) was 6.56 ± 0.79 % of Plasma Concentration (W/W, the “Uptake of [3H]-ganciclovir, % … (W/W)” value (blood-ocular barrier [2]; retina, 4.5 min, after 5 min arterial infusion of A-7) was 7.42 ± 1.14 % of Plasma Concentration (W/W and the “Increase of retinal uptake of ganciclovir compared to vehicle control” value (blood-ocular barrier [2]; retina, from 1.5 to 4.5 minutes of VEP) was “two-fold”. The “KIN of [3H]-ganciclovir” value (blood-ocular barrier [2]; vitreous) was 0.47 µL/min/g, the “Uptake of [3H]-ganciclovir, % … (W/W)” value (blood-ocular barrier [2]; vitreous, 1.5 min, arterial infusion of A-7) was 0.02 ± 0.00 % of Plasma Concentration (W/W and the “Uptake of [3H]-ganciclovir, % … (W/W)” value (blood-ocular barrier [2]; vitreous, 3.0 min, arterial infusion of A-7) was 0.04 ± 0.03 % of Plasma Concentration (W/W. For the same substance, the “Uptake of [3H]-ganciclovir, % … (W/W)” value (blood-ocular barrier [2]; vitreous, 4.5 min, arterial infusion of A-7) was 0.11 ± 0.04 % of Plasma Concentration (W/W, the “Uptake of [3H]-ganciclovir, % … (W/W)” value (blood-ocular barrier [3]; lens, 1.5 min) was 5.46 ± 1.08 % of Plasma Concentration (W/W and the “Uptake of [3H]-ganciclovir, % … (W/W)” value (blood-ocular barrier [3]; lens, 4.5 min) was 10.01 ± 1.37 % of Plasma Concentration (W/W. For the same substance, the “Uptake of [3H]-ganciclovir, % … (W/W)” value (blood-ocular barrier [3]; retina, 1.5 min) was 3.94 ± 0.36 % of Plasma Concentration (W/W, the “Uptake of [3H]-ganciclovir, % … (W/W)” value (blood-ocular barrier [3]; retina, 4.5 min) was 8.45 ± 1.00 % of Plasma Concentration (W/W and the “Increase of retinal uptake of [3H]-ganciclovir above vehicle treated controls” value (blood-ocular barrier [3]; retina, intravenous A-7, p=0.001) was “more than 2 fold”.
